These results are taken from US20260035382A1, “COMPOUNDS AS SUMO ACTIVATING ENZYME INHIBITORS” (WIGEN BIOMEDICINE TECHNOLOGY (SHANGHAI) CO., LTD., priority 2022, published 2026).

pIC50: −log10 of the molar value. Where only a bound is given, the exact number is not on record here.

SAE, sequence (Q9UBT2 whole entry): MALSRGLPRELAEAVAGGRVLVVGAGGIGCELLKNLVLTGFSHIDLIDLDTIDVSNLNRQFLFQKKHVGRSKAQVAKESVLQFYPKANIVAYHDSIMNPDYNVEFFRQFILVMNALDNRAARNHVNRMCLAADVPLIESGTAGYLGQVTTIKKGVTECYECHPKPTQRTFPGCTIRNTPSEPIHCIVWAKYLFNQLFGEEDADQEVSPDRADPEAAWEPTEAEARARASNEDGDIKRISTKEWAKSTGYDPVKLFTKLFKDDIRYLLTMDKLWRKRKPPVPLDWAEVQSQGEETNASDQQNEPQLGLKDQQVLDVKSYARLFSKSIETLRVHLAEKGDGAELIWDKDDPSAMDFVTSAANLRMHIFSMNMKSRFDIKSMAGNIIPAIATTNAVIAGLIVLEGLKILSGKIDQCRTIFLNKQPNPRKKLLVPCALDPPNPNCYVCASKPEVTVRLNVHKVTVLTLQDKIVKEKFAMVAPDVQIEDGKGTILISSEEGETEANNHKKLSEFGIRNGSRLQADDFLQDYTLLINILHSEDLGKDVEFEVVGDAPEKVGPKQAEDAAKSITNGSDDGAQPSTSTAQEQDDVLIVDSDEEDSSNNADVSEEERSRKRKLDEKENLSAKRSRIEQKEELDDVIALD
SAE, sequence (Q9UBE0 whole entry partner): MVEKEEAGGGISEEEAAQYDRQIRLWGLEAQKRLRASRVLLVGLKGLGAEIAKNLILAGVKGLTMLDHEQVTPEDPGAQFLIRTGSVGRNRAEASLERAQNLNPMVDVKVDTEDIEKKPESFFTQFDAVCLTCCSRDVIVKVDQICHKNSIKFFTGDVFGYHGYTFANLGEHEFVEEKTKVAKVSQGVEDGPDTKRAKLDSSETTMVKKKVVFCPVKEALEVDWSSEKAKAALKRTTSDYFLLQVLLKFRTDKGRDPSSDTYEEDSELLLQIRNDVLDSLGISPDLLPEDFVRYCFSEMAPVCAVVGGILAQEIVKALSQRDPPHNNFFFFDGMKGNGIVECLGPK

The target in the first experiment is SAE (Homo sapiens (Human), UniProt Q9UBT2). The experiment can be described thus: In vitro inhibitory activity assay against SAE (SUMO-2/3 immunofluorescence in HCT116 cells). Format: cell-based. The conditions noted are these: 6 h incubation, class symbols, read-out: SUMO IF IC50. As for the experimental part:
HCT116 cells were seeded into a 96-well black transparent bottom plate at about 20000/well with 90 μL per well. The cells were incubated at 37° C. overnight for 24 h. The test compounds were 10-fold diluted to give a final concentration, and 10 μL of the diluted compounds was added to each well of the cell culture plate. The mixture was incubated at 37° C. for 6 h. The cells were then washed gently, the culture medium was discarded, and the cells were washed once with 200 μL of 0.1% o PBST. 50 μL of 4% PFA was added to each well, and the cells were immobilized at room temperature for 20 min, and then washed with PBS 2-3 times. 50 μL of 0.2% o Triton X-100 was added to each well, and the cells were left to stand at room temperature for 15 min and washed with 0.1% PBST 3 times. 100 uL of 3% BSA (0.6 g BSA+20 mL PBS) was added to each well, and the mixture was blocked at 37° C. for 30 min. After the blocking was completed, the liquid was removed and a primary antibody (SUMO-2/3 (181H8) Rabbit mAb, 1:400 dilution) was prepared with […]. 30 μL of the diluted primary antibody was added to each well, and the mixture was incubated at 4° C. overnight. The cells were washed 3 times with 200 μL of 0.1% o PBST. A FITC secondary antibody (Fluorescein (FITC)-conjugated Affinipure Goat Anti-Rabbit IgG (H+L), 1:300 dilution) was further prepared with 1% o BSA, and 40 μL of the diluted secondary antibody was added to each well. The mixture was incubated at room temperature in the dark for 2 h, and then the cells were washed 4 times with 0.1% PBST. The fluorescence signal of the sample was detected and compared to the DMSO group, and the inhibition rate and IC50 were calculated.
As usually defined, the pIC50 is −log10 of the IC50, conventionally taken in molar units. As for `NS(=O)(=O)OC[C@H]1C[C@@H](Nc2ncncc2C(=O)c2cc3c(s2)COC[C@@]32NCCc3c(Cl)cc(Cl)cc32)C[C@@H]1O` [Compound 101], the negative-log IC50 (pIC50) is less than 6.70.

With `NS(=O)(=O)OC[C@H]1C[C@@H](Nc2ncncc2C(=O)c2cc3c(s2)COC[C@]32NCCc3c(Cl)cc(Cl)cc32)C[C@@H]1O` [Compound 102], the pIC50 was 6.70 to 7.30.

As to `NS(=O)(=O)OC[C@H]1C[C@@H](Nc2ncncc2C(=O)c2cc3c(s2)COCC32NCCc3ccc(Cl)c(F)c32)C[C@@H]1O` (some centres unmarked) [Compound 103], the negative-log IC50 (pIC50) is 6.70 to 7.30.

Take `NS(=O)(=O)OC[C@H]1C[C@@H](Nc2ncncc2C(=O)c2cc3c(s2)COC[C@@]32NCCc3ccc(Cl)c(F)c32)C[C@@H]1O` [Compound 104]: the pIC50 is less than 6.70.

On to `NS(=O)(=O)OC[C@H]1C[C@@H](Nc2ncncc2C(=O)c2cc3c(s2)COC[C@]32NCCc3ccc(Cl)c(F)c32)C[C@@H]1O` [Compound 105], for which the pIC50 was 6.70 to 7.30.

Turning to `NS(=O)(=O)OC[C@H]1C[C@@H](Nc2ncncc2C(=O)c2cc3c(s2)COCC32NCCc3cc(F)c(Cl)cc32)C[C@@H]1O` (some centres unmarked) [Compound 106], the negative logarithm of the IC50 (pIC50) was 6.70 to 7.30.

Regarding `NS(=O)(=O)OC[C@H]1C[C@@H](Nc2ncncc2C(=O)c2cc3c(s2)COC[C@@]32NCCc3cc(F)c(Cl)cc32)C[C@@H]1O` [Compound 107], the pIC50 was less than 6.70.

Take `NS(=O)(=O)OC[C@H]1C[C@@H](Nc2ncncc2C(=O)c2cc3c(s2)COC[C@]32NCCc3cc(F)c(Cl)cc32)C[C@@H]1O` [Compound 108]: the negative logarithm of the IC50 (pIC50) is 6.70 to 7.30.

For the compound `NS(=O)(=O)OC[C@H]1C[C@@H](Nc2ncncc2C(=O)c2cc3c(s2)COCC32NCCc3c(F)cc(Cl)cc32)C[C@@H]1O` (some centres unmarked) [Compound 109], the pIC50 was 6.70 to 7.30.

On to `NS(=O)(=O)OC[C@H]1C[C@@H](Nc2ncncc2C(=O)c2cc3c(s2)COC[C@@]32NCCc3c(F)cc(Cl)cc32)C[C@@H]1O` [Compound 110], for which the pIC50 was less than 6.70.

On to `NS(=O)(=O)OC[C@H]1C[C@@H](Nc2ncncc2C(=O)c2cc3c(s2)COC[C@]32NCCc3c(F)cc(Cl)cc32)C[C@@H]1O` [Compound 111], for which the pIC50 is 6.70 to 7.30.

With `CN1Cc2sc(C(=O)c3cncnc3N[C@@H]3C[C@H](COS(N)(=O)=O)[C@@H](O)C3)cc2C2(C1)NCCc1ccc(Cl)cc12` (some centres unmarked) [Compound 112], the pIC50 is no less than 7.30.

For the compound `NS(=O)(=O)OC[C@H]1C[C@@H](Nc2ncncc2C(=O)c2cc3c(s2)CN(C2CC2)CC32NCCc3ccc(Cl)cc32)C[C@@H]1O` (some centres unmarked) [Compound 115], the negative logarithm of the IC50 (pIC50) was no less than 7.30.

Consider `NS(=O)(=O)OC[C@H]1C[C@@H](Nc2ncncc2C(=O)c2cc3c(s2)CNCC32NCCc3ccc(Cl)cc32)C[C@@H]1O` (some centres unmarked) [Compound 118], for which the negative-log IC50 (pIC50) is 6.70 to 7.30.

With `NS(=O)(=O)OC[C@H]1C[C@@H](Nc2ncncc2C(=O)c2cc3c(s2)CNC[C@@]32NCCc3ccc(Cl)cc32)C[C@@H]1O` [Compound 119], the pIC50 was less than 6.70.

As to `NS(=O)(=O)OC[C@H]1C[C@@H](Nc2ncncc2C(=O)c2cc3c(s2)CNC[C@]32NCCc3ccc(Cl)cc32)C[C@@H]1O` [Compound 120], the negative logarithm of the IC50 (pIC50) is 6.70 to 7.30.

On to `NS(=O)(=O)OC[C@H]1C[C@@H](Nc2ncncc2C(=O)c2nc3c(s2)CCCC32NCCc3ccc(Cl)cc32)C[C@@H]1O` (some centres unmarked) [Compound 121], for which the negative-log IC50 (pIC50) is less than 6.70.

As for `NS(=O)(=O)OC[C@H]1C[C@@H](Nc2ncncc2C(=O)c2nc3c(s2)CCC[C@@]32NCCc3ccc(Cl)cc32)C[C@@H]1O` [Compound 122], the negative-log IC50 (pIC50) was less than 6.70.

On to `NS(=O)(=O)OC[C@H]1C[C@@H](Nc2ncncc2C(=O)c2nc3c(s2)CCC[C@]32NCCc3ccc(Cl)cc32)C[C@@H]1O` [Compound 123], for which the pIC50 is 6.70 to 7.30.

Take `NS(=O)(=O)OC[C@H]1C[C@@H](Nc2ncncc2C(=O)c2nc3c(s2)COCC32NCCc3ccc(Cl)cc32)C[C@@H]1O` (some centres unmarked) [Compound 124]: the pIC50 is less than 6.70.

In the case of `NS(=O)(=O)OC[C@H]1C[C@@H](Nc2ncncc2C(=O)c2nc3c(s2)COC[C@@]32NCCc3ccc(Cl)cc32)C[C@@H]1O` [Compound 125], the pIC50 is less than 6.70.

As for `NS(=O)(=O)OC[C@H]1C[C@@H](Nc2ncncc2C(=O)c2nc3c(s2)CCC[C@]32NCCc3ccc(Cl)cc32)C[C@@H]1O` [Compound 126], the pIC50 is less than 6.70.

Consider `NS(=O)(=O)OC[C@H]1C[C@@H](Nc2ncncc2C(=O)c2nc3c(s2)CSCC32NCCc3ccc(Cl)cc32)C[C@@H]1O` (some centres unmarked) [Compound 127], for which the negative-log IC50 (pIC50) was less than 6.70.

Turning to `NS(=O)(=O)OC[C@H]1C[C@@H](Nc2ncncc2C(=O)c2nc3c(s2)CSC[C@@]32NCCc3ccc(Cl)cc32)C[C@@H]1O` [Compound 128], the pIC50 is less than 6.70.

As to `NS(=O)(=O)OC[C@H]1C[C@@H](Nc2ncncc2C(=O)c2nc3c(s2)CSC[C@]32NCCc3ccc(Cl)cc32)C[C@@H]1O` [Compound 129], the negative logarithm of the IC50 (pIC50) is 6.70 to 7.30.

Turning to `CN1CCc2ccc(Cl)cc2C12CCCc1sc(C(=O)c3cncnc3N[C@@H]3C[C@H](COS(N)(=O)=O)[C@@H](O)C3)cc12` (some centres unmarked) [Compound 130], the pIC50 was 6.70 to 7.30.

On to `CN1CCc2ccc(Cl)cc2[C@]12CCCc1sc(C(=O)c3cncnc3N[C@@H]3C[C@H](COS(N)(=O)=O)[C@@H](O)C3)cc12` [Compound 131], for which the negative-log IC50 (pIC50) is less than 6.70.

On to `CN1CCc2ccc(Cl)cc2[C@@]12CCCc1sc(C(=O)c3cncnc3N[C@@H]3C[C@H](COS(N)(=O)=O)[C@@H](O)C3)cc12` [Compound 132], for which the pIC50 was 6.70 to 7.30.

Consider `NS(=O)(=O)OC[C@H]1C[C@@H](Nc2ncncc2C(=O)c2cc3c(s2)CCCC32NCCc3cnc(Cl)cc32)C[C@@H]1O` (some centres unmarked) [Compound 133], for which the negative-log IC50 (pIC50) was 6.70 to 7.30.

In the case of `NS(=O)(=O)OC[C@H]1C[C@@H](Nc2ncncc2C(=O)c2cc3c(s2)CCC[C@@]32NCCc3cnc(Cl)cc32)C[C@@H]1O` [Compound 134], the negative-log IC50 (pIC50) was less than 6.70.

With `NS(=O)(=O)OC[C@H]1C[C@@H](Nc2ncncc2C(=O)c2cc3c(s2)CCC[C@]32NCCc3cnc(Cl)cc32)C[C@@H]1O` [Compound 135], the negative logarithm of the IC50 (pIC50) is no less than 7.30.

Turning to `NS(=O)(=O)CC[C@H]1C[C@@H](Nc2ncncc2C(=O)c2cc3c(s2)CCCC32NCCc3ccc(Cl)nc32)C[C@@H]1O` (some centres unmarked) [Compound 136], the negative-log IC50 (pIC50) was no less than 7.30.

For the compound `NS(=O)(=O)OC[C@H]1C[C@@H](Nc2ncncc2C(=O)c2cc3c(s2)CCC[C@]32NCCc3ccc(Cl)nc32)C[C@@H]1O` [Compound 138], the negative-log IC50 (pIC50) is no less than 7.30.

With `NS(=O)(=O)OC[C@H]1C[C@@H](Nc2ncncc2C(=O)c2cc3c(s2)CCCC32NCCc3ncc(Cl)cc32)C[C@@H]1O` (some centres unmarked) [Compound 139], the negative logarithm of the IC50 (pIC50) is 6.70 to 7.30.

For the compound `NS(=O)(=O)OC[C@H]1C[C@@H](Nc2ncncc2C(=O)c2cc3c(s2)CCC[C@@]32NCCc3ncc(Cl)cc32)C[C@@H]1O` [Compound 140], the pIC50 is less than 6.70.

`NS(=O)(=O)OC[C@H]1C[C@@H](Nc2ncncc2C(=O)c2cc3c(s2)CCC[C@]32NCCc3ncc(Cl)cc32)C[C@@H]1O` [Compound 141]: the pIC50 was no less than 7.30.

With `NS(=O)(=O)OC[C@H]1C[C@@H](Nc2ncncc2C(=O)c2cc3c(s2)CSCC32NCCc3cnc(Cl)cc32)C[C@@H]1O` (some centres unmarked) [Compound 142], the negative-log IC50 (pIC50) was 6.70 to 7.30.

On to `NS(=O)(=O)OC[C@H]1C[C@@H](Nc2ncncc2C(=O)c2cc3c(s2)CSC[C@@]32NCCc3cnc(Cl)cc32)C[C@@H]1O` [Compound 143], for which the pIC50 is less than 6.70.

`NS(=O)(=O)OC[C@H]1C[C@@H](Nc2ncncc2C(=O)c2cc3c(s2)CSC[C@]32NCCc3cnc(Cl)cc32)C[C@@H]1O` [Compound 144]: the pIC50 was no less than 7.30.

Take `NS(=O)(=O)OC[C@H]1C[C@@H](Nc2ncncc2C(=O)c2cc3c(s2)CSCC32NCCc3ccc(Cl)nc32)C[C@@H]1O` (some centres unmarked) [Compound 145]: the pIC50 is 6.70 to 7.30.

In the case of `NS(=O)(=O)OC[C@H]1C[C@@H](Nc2ncncc2C(=O)c2cc3c(s2)CSC[C@@]32NCCc3ccc(Cl)nc32)C[C@@H]1O` [Compound 146], the negative logarithm of the IC50 (pIC50) was less than 6.70.

Regarding `NS(=O)(=O)OC[C@H]1C[C@@H](Nc2ncncc2C(=O)c2cc3c(s2)CSC[C@]32NCCc3ccc(Cl)nc32)C[C@@H]1O` [Compound 147], the pIC50 is no less than 7.30.

For the compound `NS(=O)(=O)OC[C@H]1C[C@@H](Nc2ncncc2C(=O)c2cc3c(s2)CSCC32NCCc3ncc(Cl)cc32)C[C@@H]1O` (some centres unmarked) [Compound 148], the negative logarithm of the IC50 (pIC50) is 6.70 to 7.30.

Still in this experiment, the particulars now being: 6 h incubation, numeric values, read-out: SUMO IF IC50.
In the case of `CN1Cc2sc(C(=O)c3cncnc3N[C@@H]3C[C@H](COS(N)(=O)=O)[C@@H](O)C3)cc2[C@@]2(C1)NCCc1ccc(Cl)cc12` [Compound 113], the negative logarithm of the IC50 (pIC50) is less than 6.00.

`CN1Cc2sc(C(=O)c3cncnc3N[C@@H]3C[C@H](COS(N)(=O)=O)[C@@H](O)C3)cc2[C@]2(C1)NCCc1ccc(Cl)cc12` [Compound 114]: the pIC50 is 7.64.

For `NS(=O)(=O)OC[C@H]1C[C@@H](Nc2ncncc2C(=O)c2cc3c(s2)CN(C2CC2)C[C@@]32NCCc3ccc(Cl)cc32)C[C@@H]1O` [Compound 116], the pIC50 was less than 6.00.

As for `NS(=O)(=O)OC[C@H]1C[C@@H](Nc2ncncc2C(=O)c2cc3c(s2)CN(C2CC2)C[C@]32NCCc3ccc(Cl)cc32)C[C@@H]1O` [Compound 117], the pIC50 is 7.72.
